Results: patent US6673938B1, “Substituted pyridine herbicides” (Syngenta Participations AG, priority 1998, dated 2004)

What was measured:
[1] = system: Monocotyledonous and dicotyledonous test plants; test: Herbicidal action before emergence of the plants (pre-emergence action); format: in vivo; details: evaluated after 3 weeks, nine-step scale; for pre-emergence action, Cyperus / pre-emergence action, Ipomoea / pre-emergence action, Setaria / pre-emergence action, Sinapis / pre-emergence action, Solanum / pre-emergence action, Stellaria: 2000 g/ha; for Pre-emergence action, Abutilon / Pre-emergence action, Amaranthus / Pre-emergence action, Chenop. / Pre-emergence action, Digitaria / Pre-emergence action, Echino. / Pre-emergence action, Panicum: 250 g/ha
How it was run: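 Sprayed onto soil immediately after sowing as WP suspension or EC emulsion at 2 kg or 250 g a.i./ha (500 l water/ha). Greenhouse growth for 3 weeks, then scored on a nine-step scale (1 = complete damage, 9 = no effect).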

[2] = system: Monocotyledonous and dicotyledonous test plants; test: Post-emergence herbicidal action; format: in vivo; details: evaluated after approximately 18 days; for Post-emergence action, Ipomoea / Post-emergence action, Lolium / Post-emergence action, Setaria / Post-emergence action, Sinapis / Post-emergence action, Solanum / Post-emergence action, Stellaria: 2000 g/ha, sprayed in 4- to 6-leaf stage, nine-step scale; for Post-emergence action: Abutilon (score, nine-step scale) / Post-emergence action: Chenop. (score, nine-step scale) / Post-emergence action: Digitaria (score, nine-step scale) / Post-emergence action: Echino. (score, nine-step scale) / Post-emergence action: Ipopur. (score, nine-step scale) / Post-emergence action: Panicum (score, nine-step scale) / Post-emergence action: Xanth. (score, nine-step scale): 250 g/ha, sprayed at 4- to 6-leaf stage
How it was run: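 Greenhouse plants sprayed at the 4- to 6-leaf stage with test substance as wettable-powder suspension or emulsion-concentrate emulsion, 2 kg or 250 g a.i./ha in 500 l water/ha. Scored after about 18 days on a nine-step scale (1=complete damage, 9=no effect).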

Row | Structure (SMILES) | pre-emergence action, Cyperus [1] | pre-emergence action, Ipomoea [1] | pre-emergence action, Setaria [1] | pre-emergence action, Sinapis [1] | pre-emergence action, Solanum [1] | pre-emergence action, Stellaria [1] | Post-emergence action, Ipomoea [2] | Post-emergence action, Lolium [2] | Post-emergence action, Setaria [2] | Post-emergence action, Sinapis [2] | Post-emergence action, Solanum [2] | Post-emergence action, Stellaria [2] | other results
1 | COCc1nc(C(F)(F)F)ccc1C(=O)C1=C(O)C(C)(C)CCC1=O [Compound A8-B24] | 1 | 2 | 2 | 2 | 1 | 3 | 2 | 2 | 2 | 1 | 2 | 2 | 
2 | COCc1nc(C(F)(F)F)ccc1C(=O)C1=C(O)C(C)(C(=O)OC)CCC1=O (stereo not drawn) [Compound A8-B34] | 2 | 3 | 2 | 2 | 2 | 2 | 2 | 2 | 2 | 2 | 2 | 2 | 
3 | COCc1nc(C(F)(F)F)ccc1C(=O)C1=C(O)C(C)(C)C(C)CC1=O (stereo not drawn) [Compound A8-B156] |  |  |  |  |  |  |  |  |  |  |  |  | Pre-emergence action, Abutilon [1]: 3; Pre-emergence action, Amaranthus [1]: 4; Pre-emergence action, Chenop. [1]: 2; Pre-emergence action, Digitaria [1]: 3; Pre-emergence action, Echino. [1]: 3; Pre-emergence action, Panicum [1]: 3; Post-emergence action: Abutilon (score, nine-step scale) [2]: 1; Post-emergence action: Chenop. (score, nine-step scale) [2]: 1; Post-emergence action: Digitaria (score, nine-step scale) [2]: 3; Post-emergence action: Echino. (score, nine-step scale) [2]: 3; Post-emergence action: Ipopur. (score, nine-step scale) [2]: 2; Post-emergence action: Panicum (score, nine-step scale) [2]: 2; Post-emergence action: Xanth. (score, nine-step scale) [2]: 2
4 | COCc1nc(C(F)(F)F)ccc1C(=O)C1=C(O)C(C)(C)OCC1=O [Compound A8-B552] |  |  |  |  |  |  |  |  |  |  |  |  | Pre-emergence action, Abutilon [1]: 1; Pre-emergence action, Amaranthus [1]: 4; Pre-emergence action, Chenop. [1]: 1; Pre-emergence action, Digitaria [1]: 3; Pre-emergence action, Echino. [1]: 4; Pre-emergence action, Panicum [1]: 2; Post-emergence action: Abutilon (score, nine-step scale) [2]: 2; Post-emergence action: Chenop. (score, nine-step scale) [2]: 2; Post-emergence action: Digitaria (score, nine-step scale) [2]: 3; Post-emergence action: Echino. (score, nine-step scale) [2]: 3; Post-emergence action: Ipopur. (score, nine-step scale) [2]: 2; Post-emergence action: Panicum (score, nine-step scale) [2]: 2; Post-emergence action: Xanth. (score, nine-step scale) [2]: 2
5 | COCc1nc(C(F)(F)F)ccc1C(=O)C1=C(O)CC(C(F)(F)F)CC1=O (stereo not drawn) [Compound A8-B1064] | 2 | 4 | 3 | 2 | 1 | 3 | 2 | 4 | 2 | 1 | 1 | 2 | 
6 | CCN(CC)CC.COCc1nc(C(F)(F)F)ccc1C(=O)C1=C(O)CC(C)CC1=O (stereo not drawn) [Compound A8-B1101] | 2 | 4 | 2 | 2 | 1 | 1 | 2 | 3 | 2 | 1 | 2 | 2 | 
7 | COCc1nc(C(F)(F)F)ccc1C(=O)C1=C([S+]([O-])c2ccccc2)CCCC1=O (stereo not drawn) [Compound A8-B1103] | 1 | 3 | 2 | 1 | 1 | 2 | 1 | 4 | 1 | 1 | 1 | 1 | 
8 | COCCc1nc(C(F)(F)F)ccc1C(=O)C1=C(O)CCCC1=O [Compound A9-B1] | 2 | 1 | 2 | 1 | 1 | 2 | 2 | 4 | 2 | 2 | 2 | 2 | 
9 | CC1(C)CCC(=O)C(C(=O)c2ccc(C(F)(F)F)nc2C(F)F)=C1O [Compound A18-B24] | 1 | 1 | 1 | 1 | 1 | 2 | 1 | 2 | 2 | 1 | 2 | 2 | 
10 | Cc1nc(C(F)(F)C(F)(F)F)ccc1C(=O)C1=C(O)CCCC1=O [Compound A34-B1] | 1 | 2 | 2 | 2 | 2 | 3 | 1 | 2 | 2 | 1 | 1 | 2 | 
11 | Cc1nc(C(F)(F)C(F)(F)C(F)(F)F)ccc1C(=O)C1=C(O)C(C)(C)CCC1=O [Compound A64-B24] | 4 | 4 | 2 | 2 | 1 | 2 | 2 | 2 | 4 | 1 | 2 | 2 | 
12 | Cc1nc(C(F)(F)Cl)ccc1C(=O)C1=C(O)CCCC1=O [Compound A94-B1] | 1 | 2 | 2 | 1 | 1 | 2 | 1 | 2 | 2 | 1 | 1 | 1 | 
13 | Cc1cc(C(=O)C2=C(O)CCCC2=O)c(C)nc1C(F)(F)F [Compound A184-B1] | 2 | 4 | 2 | 2 | 1 | 2 | 1 | 3 | 2 | 1 | 2 | 2 | 
14 | Cc1cc(C(=O)C2=C(O)C(C)(C)CCC2=O)c(C)nc1C(F)(F)F [Compound A184-B24] | 1 | 3 | 2 | 2 | 1 | 2 | 1 | 2 | 2 | 1 | 2 | 2 | 
15 | CCOC(=O)OCc1nc(C(F)(F)F)ccc1C(=O)C1=C(O)C(C)(C)C(=O)C(C)(C)C1=O [Compound A1208-B354] |  |  |  |  |  |  |  |  |  |  |  |  | Pre-emergence action, Abutilon [1]: 1; Pre-emergence action, Amaranthus [1]: 1; Pre-emergence action, Chenop. [1]: 1; Pre-emergence action, Digitaria [1]: 1; Pre-emergence action, Echino. [1]: 1; Pre-emergence action, Panicum [1]: 1; Post-emergence action: Abutilon (score, nine-step scale) [2]: 1; Post-emergence action: Chenop. (score, nine-step scale) [2]: 2; Post-emergence action: Digitaria (score, nine-step scale) [2]: 4; Post-emergence action: Echino. (score, nine-step scale) [2]: 2; Post-emergence action: Ipopur. (score, nine-step scale) [2]: 2; Post-emergence action: Panicum (score, nine-step scale) [2]: 3; Post-emergence action: Xanth. (score, nine-step scale) [2]: 2
